Measurements reported in US20210227814A1, “A TRANSGENIC INVERTEBRATE MODEL FOR ALZHEIMER'S DISEASE AND USE THEREOF” (National Center for Geriatrics and Gerontology, priority 2017, published 2021).

How the values were obtained:
Assay type in all cases: in vivo
[1] = system: transgenic Drosophila strains expressing Dut40; assay: Western blotting of aggregated Aβ in Drosophila expressing only Dut40; settings: Neu5Ac feeding (−) or (+); flies expressing Dut40 only
[2] = system: transgenic Drosophila strain expressing GALT6, SAT1 and Dut40; assay: Western blotting of aggregated Aβ (TBS insoluble fraction) in brain tissue; settings: Neu5Ac feeding (+) compared to (−), GALT6, SAT1 and Dut40 flies
Method: The obtained Drosophila strains were grown on Ebios Cornmeal Sucrose Agar medium at a temperature of 25° C., and in a light-dark cycle of 12 hours. In order to provide a sialic acid donor substrate Neu5Ac, Drosophila was allowed to freely lick filter paper soaked with a 10 mM Neu5Ac/150 mM sucrose solution for 24 hours every other day for 1 to 2 weeks. To confirm whether of GM3 ganglioside-dependent aggregated Aβ is accumulated in the transgenic Drosophila co-expressing GM3 ganglioside and Dut40, a sample prepared from the brain tissue of a transgenic Drosophila strain expressing GALT6, SAT1 and Dut40, was subjected to western blotting. From 100 heads of adults of each of the transgenic Drosophila strain expressing GALT6, SAT1 and Dut40 (Neu5Ac feeding (−)) and the transgenic Drosophila expressing GALT6, SAT1 and Dut40 (Neu5Ac feeding (+)), were collected, homogenized in TBS buffer and subjected to ultracentrifugation (100,000 g, one hour, 4° C.). The supernatant was collected (TBS soluble fraction). The remaining sediment was again homogenized in 100% formic acid and centrifuged (14,000 rpm, 20 minutes, 25° C.) to remove unnecessary components. […] Bands were detected by ECL western blotting detection system (GE Healthcare Life Sciences). The bands detected were analyzed by Image Analysis Software (ImageJ, made by the National Institutes of Health) to convert into numerical values. […]

[3] = system: transgenic Drosophila expressing GALT6 and SAT1; assay: LC-MS of GM3 ganglioside production in transgenic Drosophila; settings: Neu5Ac feeding (+) vs (−), 10 mM Neu5Ac/150 mM sucrose solution, heads of adults
Method: The obtained Drosophila strains were grown on Ebios Cornmeal Sucrose Agar medium at a temperature of 25° C., and in a light-dark cycle of 12 hours. In order to provide a sialic acid donor substrate Neu5Ac, Drosophila was allowed to freely lick filter paper soaked with a 10 mM Neu5Ac/150 mM sucrose solution for 24 hours every other day for 1 to 2 weeks. In order to check whether GM3 ganglioside is produced in the transgenic Drosophila strains prepared, liquid chromatography mass spectrometry (LC-MS) was carried out. The spectrometry was carried out with respect to the following Drosophila strains: (1) wild type (Neu5Ac feeding (−)) (negative control) (2) transgenic Drosophila expressing GALT6 alone (Neu5Ac feeding (−)), (3) transgenic Drosophila expressing GALT6 and SAT1 (Neu5Ac feeding (−)), (4) transgenic Drosophila expressing GALT6 and SAT1 (Neu5Ac feeding (+)), (5) transgenic Drosophila expressing SAT1 alone (Neu5Ac feeding (+)), and (6) transgenic Drosophila expressing GALT6, SAT1 and GNE (Neu5Ac feeding (−)). For each of the transgenic Drosophila strains, 200 to 1000 heads of adults were collected. To the heads, TBS buffer (50 mM Tris-HCl (pH7.6), 150 mM NaCl) was added, and the mixture was homogenized, and then dried. The obtained pellet was suspended in a solution mixture of chloroform: methanol (v/v=2:1) and a lipid extraction liquid was collected. […]

CC(=O)N[C@H]1[C@H]([C@@H](O)[C@@H](O)CO)O[C@@](O)(C(=O)O)C[C@@H]1O [Neu5Ac]
effect on the aggregation of Dut40 [1]: does not have an effect | amount of aggregated Dut40 [2]: increased | production of GM3 ganglioside [3]: confirmed
